“Also recorded” adds a separate entry of the source.
Tests used:
[1] = test system: p38; test: p38 activation in mouse peritoneal macrophages; assay type: cell-based; settings: 4 h
Method: It has been reported (Dempsey et al., 2000) that the splicing variant D of TAK1 could not be detected in many cell lines despite its expression in the parental tissue, most probably due to downregulation of the transcript during in vitro culture. Therefore, the inventors used macrophages 24 h after obtaining them from athymic NCR-NU/NU female mice by peritoneal lavage.

[2] = test system: TLK1; test: TLK1 post-transcriptional silencing in HeLa cells (Western blot); assay type: cell-based, human; settings: 48 h after transfection
Method: In order to test whether dsRNA molecules show the same cellular uptake and stability the efficiency of these molecules to post-transcriptionally silence the expression of TLK1 was determined as si6 as well as si5 siRNA are directed against the mRNA of this protein. […] As a loading control the unchanged expression levels of TAK1-A/B and 3-tubulin are shown in the two lower panels.

[3] = biological target: T1, TAK1-D (Homo sapiens, UniProt O43318); test: TAK1-D autophosphorylation on T184/T187 in H460 cells (Western blot, phospho-specific antibody); assay type: cell-based; design: endogenous in cells; host or cells: NCI-H460; settings: for activating autophosphorylation (activation) of TAK1-D on T184 and T187: H460 cells, RNA transfected (20 nM), Western blot
T1 sequence (O43318 1-491 isoform O43318-4): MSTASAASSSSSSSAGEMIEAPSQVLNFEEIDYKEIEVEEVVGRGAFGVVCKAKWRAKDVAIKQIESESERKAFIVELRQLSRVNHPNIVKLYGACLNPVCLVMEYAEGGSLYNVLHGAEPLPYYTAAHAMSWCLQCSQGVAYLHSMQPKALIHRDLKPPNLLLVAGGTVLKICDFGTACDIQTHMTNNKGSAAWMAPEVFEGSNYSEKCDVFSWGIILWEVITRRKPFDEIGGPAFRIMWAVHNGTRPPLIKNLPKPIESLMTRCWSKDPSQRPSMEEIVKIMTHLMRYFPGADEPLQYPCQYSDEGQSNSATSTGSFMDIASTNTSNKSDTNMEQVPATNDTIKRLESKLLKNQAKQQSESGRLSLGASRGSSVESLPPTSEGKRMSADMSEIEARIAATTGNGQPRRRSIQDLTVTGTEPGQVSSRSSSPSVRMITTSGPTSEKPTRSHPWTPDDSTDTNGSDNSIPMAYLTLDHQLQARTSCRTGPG
Method: In an effort to identify the MAPKKK responsible for the activation of the p38 MAP kinase and SAPK/JNK pathway, several of these kinases were screened for siRNA si5 mediated activation.
Immunoblot analysis. Western blotting was performed exactly as described previously (Kodym et al., 2008b). In addition to the primary antibodies previously mentioned (Kodym et al., 2008b) the following antibodies were used: S6 ribosomal protein (Cell Signaling #2217), DPM1 (Santa Cruz #sc-15836, Santa Cruz, Calif., USA), and Histone H3 (Cell Signaling #9715).

[4] = test system: SAPK/JNK pathway; test: Activation of the SAPK/JNK pathway in H460 cells (Western blot); assay type: cell-based, human; settings: for activation of the SAPK/JNK pathway (phosphorylation of MKK4, SAPK/JNK): H460 cells, 20 nM RNA, 2-6 h
[5] = test system: H460 cells; test: Protein synthesis by [35S] methionine incorporation in H460 cells; assay type: cell-based, human; settings: for protein synthesis by [35S] methionine incorporation: 4 h
Method: On the next day cells were incubated with the dsRNAs for the given amount of time. Ten minutes prior to labeling the cell culture medium was replaced with cystein/methionine free RPMI. Thereafter, cells were incubated for 15 minutes in cystein/methionine free RPMI containing 40 μC/ml [^35S] methionine (Perkin Elmer, Waltham, Mass., USA).
In order to measure the incorporated radionuclide, cells were washed 5 times with 5% TCA, once with 70% ethanol and the proteins were solubilized in SDS-PAGE sample buffer. After addition of the samples to a liquid scintillation cocktail, [^35S] activity was determined in a LS6500 scintillation counter (Beckmann).
For SDS-PAGE cells were washed 3 times with PBS and proteins were solubilized by heating in non reducing sample buffer. After determination of the protein concentration (D protein assay, Bio-Rad, Hercules, Calif., USA) samples were reduced by the addition of DTT to a final concentration of 100 mM and separated in a 4-12% Bis-Tris gradient gel (NuPAGE, Invitrogen). The gel was dried after Coomassie blue staining and autoradiography was performed using a phosphoimager (Typhoon 9410, Amerham).

[6] = test system: H460 cells; test: Survival assay of H460 cells, Crystal Violet staining
[7] = test system: HCC2279 cells; test: Crystal Violet staining of HCC2279 cells; assay type: cell-based, human; settings: 48 h
Method: To test whether the dsRNA mediated activation of the stress-activated protein kinase cascade also leads to cell death in HCC2279 cells, the cells were plated in a 12 well multi-well plated, treated with siRNA si5 or as a control with siRNA si6 and stained with Crystal Violet 48 h later. […] The data presented as well as the widespread expression of Tak1-D in tissues like lung, brain, liver, and prostate (Dempsey et al., 2000) makes targeted activation of TAK1-D by specific dsRNA an interesting treatment opportunity for these types of cancer.

si6: control 21-mer siRNA against TLK1 mRNA: GGGUGGAAAUGGCUCAAGUtt (SEQ ID NO: 4) / gtCCCACCUUUACCGAGUUCA (SEQ ID NO: 5) (sense GGGUGGAAAUGGCUCAAGUTT; antisense GTCCCACCUUUACCGAGUUCA; chemistry not given here; one strand is listed 3' to 5') [reference compound]
p38 activation by phosphorylation [1]: not | expression level of TLK1 [2]: drastically reduce the expression level; also recorded: reduced to almost undetectable levels; also recorded: very significant reduction in the expression of TLK1 | activating autophosphorylation (activation) of TAK1-D on T184 and T187 [3]: not triggered | activation of the SAPK/JNK pathway (phosphorylation of MKK4, SAPK/JNK) [4]: had no effect; also recorded: does not occur; also recorded: No activation | inhibition of translation ([5]; H460, SDS-PAGE autoradiography): No inhibition of translation was observed | [35S] methionine incorporation ([5]; H460, scintillation counting): remained unchanged | cell death, crystal violet ([6]; H460, 48 hours after transfection, shRNA experiment): no cell death or growth inhibition could be observed | toxicity, crystal violet ([6]; H460-wt, H460-vec, H460-K63W, 48 h): no significant toxicity can be observed | toxicity, crystal violet ([7]; HCC2279, concentration range tested): no significant toxicity

si5: 21-mer siRNA against TLK1 mRNA: GGCUUUUGACCUUUAUGAAtt (SEQ ID NO: 2) / ttCCGAAAACUGGAAAUACUU (SEQ ID NO: 3) (sense GGCUUUUGACCUUUAUGAATT; antisense TTCCGAAAACUGGAAAUACUU; chemistry not given here; one strand is listed 3' to 5')
p38 activation by phosphorylation [1]: p38 is activated by phosphorylation | expression level of TLK1 [2]: drastically reduce the expression level; also recorded: reduced to almost undetectable levels; also recorded: very significant reduction in the expression of TLK1 | activating autophosphorylation (activation) of TAK1-D on T184 and T187 [3]: a si5 induced signal was detected; also recorded: able to activate Tak1-D; also recorded: leads to phosphorylation of TAK1-D | autophosphorylation signal of Tak1-D six hours after addition ([3]; NCI-H460 cells, 6 h): significantly stronger autophosphorylation signal | activation of the SAPK/JNK pathway (phosphorylation of MKK4, SAPK/JNK) [4]: activation of the stress-activated protein kinase jun-amino-terminal kinase (SAPK/JNK) pathway | activation of the SAPK/JNK pathway (phosphorylation of MKK4, SAPK/JNK) ([4]; listed as Si5): phosphorylation and activation of MKK3/6 as well as MKK4 | activating phosphorylation of SAPK/JNK in TAK1-D/K63W transfected cells ([4]; H460 stably transfected with K63W vs wt and vector, 4 h): very significant reduction; also recorded: significantly reduced | [35S] methionine incorporation, of its initial value ([5]; H460, after 4 hours, scintillation counting): about 60% | time until [35S] methionine incorporation significantly reduced ([5]; H460, after transfection): ≤ 1 h | [35S] methionine incorporation, of initial value ([5]; H460, within first 4 hours, SDS-PAGE autoradiography): about 50% | protein synthesis by [35S] methionine incorporation ([5]; TAK1-D/K63W transfected H460, 10 nM): could not be observed; also recorded: no change in protein synthesis can be detected | protein synthesis by [35S] methionine incorporation ([5]; wild-type and vector transfected H460, 10 nM): significant reduction in mRNA translation; also recorded: drops significantly | effect on cells, Crystal Violet ([6]; H460, 5 nM, 48 h): slight growth retardation | effect on cells, Crystal Violet ([6]; H460, 10 nM to 20 nM, 48 h): significant cell kill | cell death, crystal violet ([6]; H460-wt and H460-vec, 5 or 10 nM, 48 h): massive cell death | cell death, crystal violet ([6]; TAK1-D/K63W transfected H460, 5 or 10 nM, 48 h): survive the treatment and not | effect on cells, Crystal Violet ([7]; HCC2279, 5 nM): small effect on cell growth | effect on cells, Crystal Violet ([7]; HCC2279, 10 to 20 nM): significant cell death

— US8163709B2, “TAK1-D mediated induction of cell death in human cancer cells by specific sequence short double-stranded RNAS” (Board of Regents of the University of Texas System, priority 2008, dated 2012)
